The record followed here is patent US20060014712A1, “Controlled delivery of therapeutic compounds” (CeMines, Inc., priority 2004, published 2006).

The test system of test [1] is B16. Kind of test: Apoptosis, Annexin V-Cy3 Apoptosis Kit. Type of test: cell-based, mouse. The settings on record: CPP mimicking peptides, conc 10 µM. Here is the method:
Methods. Human melanoma cell lines SK-MEL-28 and WM 2664 and mouse melanoma cell line B16 were obtained from the American Tissue Culture Collection (ATCC). Cells were cultured according to recommendations of ATCC (DMEM, 10% FCS, penicillin+streptomycin) and used in experiments after two passages in the laboratory. Cells were grown in 24 well plates, each treatment in triplicates. Cells were plated 16 hours prior treatments started. Peptides were added to the media, and media was changed every day during 7 day experiment. CPP concentration was 10 μM Apoptosis was analyzed using Biovision Annexin V-Cy3 Apoptosis Kit according to manufacturers protocols.

Test [2] has as its system Dct/Trp2 promoter. Kind of test: Transient CAT assay, Dct/Trp2 proximal promoter-CAT construct in WM 266-4. Type of test: cell-based, human. The settings on record: CPP concentration 10 μM. Here is the method: (§1) SOX10 and MITF interact with the proximal promoter of Dct/Trp2 gene and induces its activity (Ludwig A. et al., FEBS Lett. 556 (1-3):236-244 (2004)). Thus, a Dct/Trp2 proximal promoter reporter construct was used to analyze effect of mimicking peptides on promoter activity using transient CAT assay.
(§2) Methods. Human melanoma cell lines SK-MEL-28 and WM 266-4 were obtained from the American Tissue Culture Collection (ATCC) and were cultured according to recommendations of ATCC (DMEM, 10% FCS, penicillin+streptomycin). Dct/Trp2 proximal promoter-CAT construct (Ludwig et al., supra) was used in all experiments.
(§3) Cells were transfected by using FuGene reagent (Roche Molecular Biochemicals) according to manufacturer's instructions. Freeze-thaw lysates of cells collected 48 h after the transfection were assayed for CAT activity as described (Pothier, F. et al., DNA Cell Biol. 11(1):83-90 (1992)). At least two different DNA preparations were tested for each plasmid. To normalize the transfection efficiencies, cells were cotransfected with pON260 expressing β-galactosidase (Spaete, R. R. and Mocarski, E. S., J. Virol. 54(3):817-24 (1985); Spaete, R. R. and Mocarski, E. S., J. Virol. 56(1):13543 (1985)). All the CAT activities were normalized to total protein and β-galatosidase activity.
(§4) Following transfection, cells were grown in 6 well plates, each treatment in triplicates. Peptides were added to the media and media was changed every day during the 7 day experiment. CPP concentration was 10 μM.

The test system of test [3] is B16. Kind of test: WST-1 test (mitochondrial activity). Type of test: cell-based, mouse. The settings on record: CPP mimicking peptides, conc 10 µM, untreated = 1. Here is the method: Methods. Human melanoma cell lines SK-MEL-28 and WM 2664 and mouse melanoma cell line B16 were obtained from the American Tissue Culture Collection (ATCC). Cells were cultured according to recommendations of ATCC (DMEM, 10% FCS, penicillin+streptomycin) and used in experiments after two passages in the laboratory. Cells were grown in 24 well plates, each treatment in triplicates. Cells were plated 16 hours prior treatments started. Peptides were added to the media, and media was changed every day during 7 day experiment. […]

The subject of test [4] is Dct/Trp2 promoter. Kind of test: Transient CAT assay, Dct/Trp2 proximal promoter-CAT construct in SK-MEL-28. The settings on record: CPP concentration 10 μM. Type of test: cell-based, human. The procedure: as §1, §2, §3, §4
Test [5] concerns Human keratinocytes. Kind of test: WST-1 test (mitochondrial activity). It counts as cell-based. The settings on record: keratinocyte; modified peptides; conc 10 µM; untreated = 1. Here is the method:
Methods. Human melanoma cell lines SK-MEL-28 and WM 266-4 were obtained from the American Tissue Culture Collection (ATCC) and were cultured according to recommendations of ATCC (DMEM, 10% FCS, penicillin+streptomycin). Human keratinocytes were obtained from Clonetics and cultured according to manufacturers protocol. Cells were used in experiments after two passages in the laboratory. Cells were grown in 24 well plates, each treatment in triplicates. Cells were plated 16 hours prior treatments started. Peptides were added to the media, and media was changed every day during 7 day experiment. […] WST-1 test was performed to measure mitochondrial activity, which can also be used as a measure of cell number.

In test [6] the test system is Human keratinocytes. Kind of test: Cell counting after 7 day peptide treatment. The settings on record: keratinocyte, modified peptides, conc 10 µM, start count 10. Type of test: cell-based. The procedure:
Methods. Human melanoma cell lines SK-MEL-28 and WM 266-4 were obtained from the American Tissue Culture Collection (ATCC) and were cultured according to recommendations of ATCC (DMEM, 10% FCS, penicillin+streptomycin). Human keratinocytes were obtained from Clonetics and cultured according to manufacturers protocol. Cells were used in experiments after two passages in the laboratory. Cells were grown in 24 well plates, each treatment in triplicates. Cells were plated 16 hours prior treatments started. Peptides were added to the media, and media was changed every day during 7 day experiment. CPP concentration was 10 μM. For cell counting, cells were trypsinized (0.25% Trypsin, 2 mM EDTA) in Ca, Mg free PBS. Cells were precipitated and resuspended in 100 μl of PBS, and 5 μl were removed for counting.

Another test has as its system B16 melanoma. Kind of test: Mouse tumor xenograft model, peptide membrane patch on skin melanoma. Type of test: in vivo. The settings on record: patch immersed in 100 μM peptide solution, start = 100. The procedure: The effect of modified mimicking peptides was analyzed by inducing melanomas in mouse skin by grafting suspension of melanoma cells. […] Tumor diameter was measured 1, 2, 3, 5, 7 days after treatmet started.
Methods. Mouse melanoma cell line B16 was cultured as described above, and approximately 5×10^6 cells were injected subcutaneously into the left and right limbs of three C57BL/6JOIaHsd mice.
Administration. Cellulose membrane was immersed in a solution of peptides (100 μM). Size of tumor was measured 1, 2, 3, 5 and 7 days following patch treatment. At the same time new patch was applied. All experiments were done in triplicates (3 animals per group).

Test [7] deals with Human keratinocytes. Kind of test: Apoptosis, Annexin V-Cy3 Apoptosis Kit. Type of test: cell-based. The settings on record: keratinocyte, modified peptides, conc 10 µM.

For the sequence “RPKKRKVRRRVKRPMNAFMVWAQAARRKLADQY [SOX10-int1]”, the “Apoptosis 7 d/%” value with B16 [1] stood at 12%. In addition, the “Dct/Trp2 promoter activity (CAT assay)” value in the test with Dct/Trp2 promoter [2] and in the test with Dct/Trp2 promoter [4] was “suppress Dct/Trp2 promoter activity significantly” in each case. In the test on B16 [3], this sequence displayed a WST-1 7 d of 0.88.
Turning to “RPKKRKVRRRFNINDRIKELGTLIPKSNDPDMRWN [MITF-int1]”, the “Apoptosis 7 d/%” value in the test on B16 [1] was 16%. Also, the “Dct/Trp2 promoter activity (CAT assay)” value in the test with Dct/Trp2 promoter [2] and with Dct/Trp2 promoter [4] was “suppress Dct/Trp2 promoter activity significantly” each time.
In turn, “TTGGSSPQGLEAKRPKKRKVRRRFNINDRIKELGTLIPKSNDPDMRWN [MITF-int1M]” yielded a WST-1 7 d in the test on Human keratinocytes [5] of 0.93. Moreover, the “Cell Count 7 d” value in the test with Human keratinocytes [6] was determined as 38. Besides, the “tumor size change (%) 1 d” value with B16 melanoma (1 d, B16 s.c. in C57BL/6 mice) was found to be 112%. In addition, in the test on B16 melanoma (2 d), the “tumor size change (%) 2 d” value was determined as 135%. Moreover, in the test on B16 melanoma (3 d), the “tumor size change (%) 3 d” value is given as 150%. For the same sequence, the “tumor size change (%) 5 d” value in the test with B16 melanoma (5 d) was 170%. Moreover, the “tumor size change (%) 7 d” value in the test on B16 melanoma (7 d) is listed as 210%. For the same sequence, the “Apoptosis 7 d/%” value with Human keratinocytes [7] is on record as 5%.
